Reference: patent US20240391875A1, “ISOQUINOLINONES AND QUINOLINONES AS MODULATORS OF POLRMT” (Pretzel Therapeutics, Inc., priority 2021, published 2024)

What follows are molecules tested against POLRMT (Homo sapiens, UniProt O00411) (assay: homogeneous TR-FRET assay of mitochondrial transcription (inhibition of POLRMT)). Conditions: isoquinolinone compounds (Table 1).
Format: biochemical
How it was run: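 Recombinant POLRMT (7.5 nM) with TFB2M, TFAM and linearized LSP plasmid template, 500 μM NTPs, pH 7.5 Mg buffer; 60 min at 37° C. Reaction stopped with EDTA/high-salt buffer, 407 bp RNA transcript detected by hybridized ATTO647/Europium-cryptate probe pair; TR-FRET 665/620 nm ratio taken as transcript yield.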

Chain of POLRMT (O00411 42-1230): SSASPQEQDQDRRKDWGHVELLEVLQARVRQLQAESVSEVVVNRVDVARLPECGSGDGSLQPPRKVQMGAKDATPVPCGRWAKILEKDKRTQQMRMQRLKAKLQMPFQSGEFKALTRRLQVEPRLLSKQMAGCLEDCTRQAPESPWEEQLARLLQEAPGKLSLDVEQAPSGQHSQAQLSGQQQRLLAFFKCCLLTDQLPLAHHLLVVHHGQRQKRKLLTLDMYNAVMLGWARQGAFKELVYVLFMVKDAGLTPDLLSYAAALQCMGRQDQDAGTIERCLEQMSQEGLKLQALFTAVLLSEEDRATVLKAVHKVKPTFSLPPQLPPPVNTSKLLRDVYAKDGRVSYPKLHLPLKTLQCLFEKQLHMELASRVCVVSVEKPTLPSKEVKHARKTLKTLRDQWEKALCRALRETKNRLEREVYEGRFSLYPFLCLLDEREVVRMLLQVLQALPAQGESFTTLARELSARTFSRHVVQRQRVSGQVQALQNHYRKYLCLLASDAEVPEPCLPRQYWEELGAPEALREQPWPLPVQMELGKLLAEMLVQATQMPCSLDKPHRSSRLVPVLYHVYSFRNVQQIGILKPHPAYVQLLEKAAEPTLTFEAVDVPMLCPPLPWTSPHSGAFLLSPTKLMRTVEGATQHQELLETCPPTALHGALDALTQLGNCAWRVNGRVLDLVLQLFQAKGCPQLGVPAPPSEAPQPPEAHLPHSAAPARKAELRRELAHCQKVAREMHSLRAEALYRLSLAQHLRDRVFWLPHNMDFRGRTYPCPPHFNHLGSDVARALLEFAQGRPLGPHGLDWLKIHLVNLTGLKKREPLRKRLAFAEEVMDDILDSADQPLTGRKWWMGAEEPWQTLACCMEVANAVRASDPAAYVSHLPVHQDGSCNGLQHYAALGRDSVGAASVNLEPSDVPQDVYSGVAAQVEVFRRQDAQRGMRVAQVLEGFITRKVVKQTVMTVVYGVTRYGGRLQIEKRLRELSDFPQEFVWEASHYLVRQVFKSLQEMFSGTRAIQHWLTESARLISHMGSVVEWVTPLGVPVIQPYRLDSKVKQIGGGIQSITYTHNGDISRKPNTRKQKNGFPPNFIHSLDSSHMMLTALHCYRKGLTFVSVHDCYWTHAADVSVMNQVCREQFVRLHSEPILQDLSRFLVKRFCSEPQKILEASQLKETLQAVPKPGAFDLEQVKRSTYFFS

IC50 | SMILES
2000 nM | C[C@@H](Oc1ccc2c(-c3ccc(F)cc3Cl)c[nH]c(=O)c2c1)C(=O)N1CCS(=O)(=O)CC1 [Example 101, (R)-4-(2-chloro-4-fluorophenyl)-7-((1-(1,1-dioxidothiomorpholino)-1-oxopropan-2-yl)oxy)isoquinolin-1(2H)-one]
700 nM | COC[C@@H]1COCCN1C(=O)[C@@H](C)Oc1ccc2c(-c3ccc(F)cc3Cl)c[nH]c(=O)c2c1 [Example 102, 4-(2-chloro-4-fluorophenyl)-7-(((R)-1-((R)-3-(methoxymethyl)morpholino)-1-oxopropan-2-yl)oxy)isoquinolin-1(2H)-one]
700 nM | COC[C@H]1COCCN1C(=O)[C@@H](C)Oc1ccc2c(-c3ccc(F)cc3Cl)c[nH]c(=O)c2c1 [Example 103, 4-(2-chloro-4-fluorophenyl)-7-(((R)-1-((S)-3-(methoxymethyl)morpholino)-1-oxopropan-2-yl)oxy)isoquinolin-1(2H)-one]
1000 nM | C[C@@H](Oc1ccc2c(-c3ccc(F)cc3Cl)c[nH]c(=O)c2c1)C(=O)N1CCO[C@@H](CO)C1 [Example 104, 4-(2-chloro-4-fluorophenyl)-7-(((R)-1-((R)-2-(hydroxymethyl)morpholino)-1-oxopropan-2-yl)oxy)isoquinolin-1(2H)-one]
200 nM | C[C@@H](Oc1ccc2c(-c3ccc(F)cc3Cl)c[nH]c(=O)c2c1)C(=O)N1CC2CCC(C1)O2 [Example 105, 7-(((2R)-1-(8-oxa-3-azabicyclo[3.2.1]octan-3-yl)-1-oxopropan-2-yl)oxy)-4-(2-chloro-4-fluorophenyl)isoquinolin-1(2H)-one]
600 nM | C[C@@H](Oc1ccc2c(-c3ccc(F)cc3Cl)c[nH]c(=O)c2c1)C(=O)N1CCO[C@H](CO)C1 [Example 106, 4-(2-chloro-4-fluorophenyl)-7-(((R)-1-((S)-2-(hydroxymethyl)morpholino)-1-oxopropan-2-yl)oxy)isoquinolin-1(2H)-one]
200 nM | C[C@@H](Oc1ccc2c(-c3ccc(F)cc3Cl)c[nH]c(=O)c2c1)C(=O)N1CCOCC1(C)C [Example 107, (R)-4-(2-chloro-4-fluorophenyl)-7-((1-(3,3-dimethylmorpholino)-1-oxopropan-2-yl)oxy)isoquinolin-1(2H)-one]
7000 nM | Cc1cc(F)cc(C)c1-c1c[nH]c(=O)c2cc(OCC(N)=O)ccc12 [Example 109, 2-((4-(4-fluoro-2,6-dimethylphenyl)-1-oxo-1,2-dihydroisoquinolin-7-yl)oxy)acetamide]
25000 nM | Cc1cc(F)cc(C)c1-c1c[nH]c(=O)c2cc(OCC(=O)O)ccc12 [Example 110, 2-((4-(4-fluoro-2,6-dimethylphenyl)-1-oxo-1,2-dihydroisoquinolin-7-yl)oxy)acetic acid]
90 nM | Cc1cccc(C)c1-c1c[nH]c(=O)c2cc(O[C@H](C)C(=O)O)ccc12 [Example 111, (R)-2-((4-(2,6-dimethylphenyl)-1-oxo-1,2-dihydroisoquinolin-7-yl)oxy)propanoic acid]
4000 nM | C[C@@H](Oc1ccc2c(-c3ccc(F)cc3Cl)c[nH]c(=O)c2c1)C(=O)N1CCOC[C@H]1C(=O)O [Example 112, (S)-4-((R)-2-((4-(2-chloro-4-fluorophenyl)-1-oxo-1,2-dihydroisoquinolin-7-yl)oxy)propanoyl)morpholine-3-carboxylic acid]
600 nM | C[C@@H](Oc1ccc2c(-c3ccc(F)cc3Cl)c[nH]c(=O)c2c1)C(=O)N1CCOC[C@H]1CO [Example 113, 4-(2-chloro-4-fluorophenyl)-7-(((R)-1-((R)-3-(hydroxymethyl)morpholino)-1-oxopropan-2-yl)oxy)isoquinolin-1(2H)-one]
200 nM | C[C@@H](Oc1ccc2c(-c3ccc(F)cc3Cl)c[nH]c(=O)c2c1)C(=O)N1CCOC[C@@H]1CO [Example 114, 4-(2-chloro-4-fluorophenyl)-7-(((R)-1-((S)-3-(hydroxymethyl)morpholino)-1-oxopropan-2-yl)oxy)isoquinolin-1(2H)-one]
400 nM | C[C@@H](Oc1ccc2c(-c3ccc(F)cc3Cl)c[nH]c(=O)c2c1)C(=O)N1CCOC[C@@H]1C(=O)O [Example 115, (R)-4-((R)-2-((4-(2-chloro-4-fluorophenyl)-1-oxo-1,2-dihydroisoquinolin-7-yl)oxy)propanoyl)morpholine-3-carboxylic acid]
500 nM | CC(=O)N1CCN(C(=O)[C@@H](C)Oc2ccc3c(-c4ccc(F)cc4Cl)c[nH]c(=O)c3c2)CC1 [Example 116, (R)-7-((1-(4-acetylpiperazin-1-yl)-1-oxopropan-2-yl)oxy)-4-(2-chloro-4-fluorophenyl)isoquinolin-1(2H)-one]
500 nM | CCC(=O)N1CCN(C(=O)[C@@H](C)Oc2ccc3c(-c4ccc(F)cc4Cl)c[nH]c(=O)c3c2)CC1 [Example 117, (R)-4-(2-chloro-4-fluorophenyl)-7-((1-oxo-1-(4-propionylpiperazin-1-yl)propan-2-yl)oxy)isoquinolin-1(2H)-one]
400 nM | C[C@@H](Oc1ccc2c(-c3ccc(F)cc3Cl)c[nH]c(=O)c2c1)C(=O)N1CCN(CC(F)(F)F)CC1 [Example 118, (R)-4-(2-chloro-4-fluorophenyl)-7-((1-oxo-1-(4-(2,2,2-trifluoroethyl)piperazin-1-yl)propan-2-yl)oxy)isoquinolin-1(2H)-one]

IC50 | SMILES
700 nM | Cc1ccccc1-c1c[nH]c(=O)c2cc(OC(C)(C)C(=O)O)ccc12 [Example 119, 2-methyl-2-((1-oxo-4-(o-tolyl)-1,2-dihydroisoquinolin-7-yl)oxy)propanoic acid]
300 nM | C[C@@H](Oc1ccc2c(-c3ccc(F)cc3Cl)c[nH]c(=O)c2c1)C(=O)N1CCO[C@@H](C(=O)O)C1 [Example 120, (R)-4-((R)-2-((4-(2-chloro-4-fluorophenyl)-1-oxo-1,2-dihydroisoquinolin-7-yl)oxy)propanoyl)morpholine-2-carboxylic acid]
200 nM | C[C@@H](Oc1ccc2c(-c3ccc(F)cc3Cl)c[nH]c(=O)c2c1)C(=O)N1CCO[C@H](C(=O)O)C1 [Example 121, (S)-4-((R)-2-((4-(2-chloro-4-fluorophenyl)-1-oxo-1,2-dihydroisoquinolin-7-yl)oxy)propanoyl)morpholine-2-carboxylic acid]
300 nM | C[C@@H](Oc1ccc2c(-c3ccc(F)cc3Cl)c[nH]c(=O)c2c1)C(=O)N1CCOC[C@@H]1C(N)=O [Example 122, (R)-4-((R)-2-((4-(2-chloro-4-fluorophenyl)-1-oxo-1,2-dihydroisoquinolin-7-yl)oxy)propanoyl)morpholine-3-carboxamide]
300 nM | C[C@@H](Oc1ccc2c(-c3ccc(F)cc3Cl)c[nH]c(=O)c2c1)C(=O)N1CCOC[C@H]1C(N)=O [Example 123, (S)-4-((R)-2-((4-(2-chloro-4-fluorophenyl)-1-oxo-1,2-dihydroisoquinolin-7-yl)oxy)propanoyl)morpholine-3-carboxamide]
400 nM | CC[C@@H](Oc1ccc2c(-c3ccccc3C)c[nH]c(=O)c2c1)C(=O)O [Example 126, (R)-2-((1-oxo-4-(o-tolyl)-1,2-dihydroisoquinolin-7-yl)oxy)butanoic acid]
2000 nM | C[C@@H](Oc1ccc2c(-c3ccc(F)cc3Cl)c[nH]c(=O)c2c1)C(=O)N1CC2CC1CN2C (stereo partly drawn) [Example 127, 4-(2-chloro-4-fluorophenyl)-7-(((2R)-1-(5-methyl-2,5-diazabicyclo[2.2.1]heptan-2-yl)-1-oxopropan-2-yl)oxy)isoquinolin-1(2H)-one]
3000 nM | C[C@@H](Oc1ccc2c(-c3ccc(F)cc3Cl)c[nH]c(=O)c2c1)C(=O)N1CC[S+]([O-])CC1 [Example 128, (R)-4-(2-chloro-4-fluorophenyl)-7-((1-(1-oxidothiomorpholino)-1-oxopropan-2-yl)oxy)isoquinolin-1(2H)-one]
1000 nM | C[C@@H](Oc1ccc2c(-c3ccc(F)cc3Cl)c[nH]c(=O)c2c1)C(=O)N1CCO[C@@H](C(N)=O)C1 [Example 129, (R)-4-((R)-2-((4-(2-chloro-4-fluorophenyl)-1-oxo-1,2-dihydroisoquinolin-7-yl)oxy)propanoyl)morpholine-2-carboxamide]
2000 nM | C[C@@H](Oc1ccc2c(-c3ccc(F)cc3Cl)c[nH]c(=O)c2c1)C(=O)N1CCN(S(C)(=O)=O)CC1 [Example 130, (R)-4-(2-chloro-4-fluorophenyl)-7-((1-(4-(methylsulfonyl)piperazin-1-yl)-1-oxopropan-2-yl)oxy)isoquinolin-1(2H)-one]
1000 nM | C[C@@H](Oc1ccc2c(-c3ccc(F)cc3Cl)c[nH]c(=O)c2c1)C(=O)N1CCN(C)CC1 [Example 131, (R)-4-(2-chloro-4-fluorophenyl)-7-((1-(4-methylpiperazin-1-yl)-1-oxopropan-2-yl)oxy)isoquinolin-1(2H)-one]
400 nM | C[C@@H](Oc1ccc2c(-c3ccc(F)cc3Cl)c[nH]c(=O)c2c1)C(=O)N1CCO[C@H](C(N)=O)C1 [Example 132, (S)-4-((R)-2-((4-(2-chloro-4-fluorophenyl)-1-oxo-1,2-dihydroisoquinolin-7-yl)oxy)propanoyl)morpholine-2-carboxamide]
1000 nM | Cc1sccc1-c1c[nH]c(=O)c2cc(OCC#N)ccc12 [Example 133, 2-((4-(2-methylthiophen-3-yl)-1-oxo-1,2-dihydroisoquinolin-7-yl)oxy)acetonitrile]
21000 nM | Cc1sccc1-c1c[nH]c(=O)c2cc(OCC(N)=O)ccc12 [Example 134, 2-((4-(2-methylthiophen-3-yl)-1-oxo-1,2-dihydroisoquinolin-7-yl)oxy)acetamide]
200 nM | Cc1c(F)cccc1-c1c[nH]c(=O)c2cc(OCC#N)ccc12 [Example 135, 2-((4-(3-fluoro-2-methylphenyl)-1-oxo-1,2-dihydroisoquinolin-7-yl)oxy)acetonitrile]
3000 nM | Cc1c(F)cccc1-c1c[nH]c(=O)c2cc(OCC(N)=O)ccc12 [Example 136, 2-((4-(3-fluoro-2-methylphenyl)-1-oxo-1,2-dihydroisoquinolin-7-yl)oxy)acetamide]
